From patent US20260224688A1, “HELPER LIPIDS FOR NUCLEIC ACID DELIVERY” (SANOFI PASTEUR INC., priority 2023, published 2026)

Columns and labels:
hEPO [1] = test: IM EPO expression of LNPs containing phosphatidylcholine helper lipids; format: in vivo, female BALB/cJ mice; details: PC/CL-C formulations, helper lipid 13.5 mol %, DOPE = 1
Procedure: EPO expression studies were conducted with female BALB/cJ mice 6-8 weeks of age. Mice were dosed with […] EPO mRNA in 30 μL of LNPs by a single intramuscular (IM) injection into the gastrocnemius leg muscle. Blood samples were taken 6 and 24 hours post injection and hEPO levels were measured in the blood serum of the mice using an ELISA assay according to the manufacture's protocol. WO2022/099003 A1 also describes an in vivo assay for intramuscular administration (e.g. on page 46, paragraph [00206]).
Lipid nanoparticles were formulated containing the four lipid components shown below, complexed with a hEPO messenger RNA. • Cationic lipid CL-C, 40 mol % • Helper lipid, 13.5 mol % • Cholesterol, 44.8 mol % • DMG-PEG-2K (1,2-dimyristoyl-rac-glycero-3-methoxypolyethyleneglycol), 1.67 mol %
EPO expression studies were performed as described above in Example 3.

hEPO [2] = test: IV delivery using phosphatidylcholine helper lipids (EPO expression); format: in vivo, female BALB/cJ mice; details: cationic lipid CL-0137, helper lipid 13.5 mol %; 0.017 μg EPO mRNA tail vein; 6 hours; DOPE = 1
Procedure: Lipid nanoparticles were formulated containing the four lipid components shown below, complexed with a hEPO messenger RNA. • Cationic lipid CL-0137, 40 mol % • Helper lipid, 13.5 mol % • Cholesterol, 44.8 mol % • DMG-PEG-2K (1,2-dimyristoyl-rac-glycero-3-methoxypolyethyleneglycol), 1.67 mol %
EPO expression studies were conducted with female BALB/cJ mice 6-8 weeks of age. Mice were dosed with 0.017 μg EPO mRNA LNPs in a volume of 5 ul by a single tail vein injection. Blood samples were taken 6 hours post injection and hEPO levels were measured in the blood serum of the mice using an ELISA assay according to the manufacture's protocol.

hEPO [3] = test: IV EPO expression of LNPs (tail vein injection); format: in vivo, female BALB/cJ mice; details: cationic lipid CL-0137, helper lipid 30 mol %; 0.017 μg EPO mRNA tail vein; 6 hours; DOPE = 1
Method in brief: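 Female BALB/cJ mice (6-8 weeks) received a single tail-vein injection of 0.017 μg hEPO mRNA in LNPs (cationic lipid CL-0137/helper lipid/cholesterol/DMG-PEG-2K, 40:30:28.5:1.5 mol %). Serum hEPO was measured by ELISA on blood taken 6 h post-dose.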

[4] = Dynamic light scattering of lipid nanoparticles (size, PDI); format: physicochemical
Method in brief: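 LNPs of cationic lipid:DMG-PEG2000:cholesterol:helper lipid at 40:1.5:30:28.5 molar ratio, made by Process A. Diluted in 10% trehalose (about 0.1 mg/ml mRNA) and sized by DLS at 173° backscatter with a 633-nm laser, giving size and PDI.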

hEPO [5] = test: IM EPO expression of LNPs containing new helper lipids (hEPO in serum by ELISA); format: in vivo, female BALB/cJ mice; details: single IM injection; for 24-h EPO: serum 24 hours post injection
Method in brief: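 Female BALB/cJ mice aged 6-8 weeks received one intramuscular gastrocnemius injection of […] hEPO mRNA in 30 μL LNPs. The LNPs contained cationic lipid, phospholipid helper, cholesterol and DMG-PEG-2K at 40:30:28.5:1.5 mol %. Serum hEPO was measured by ELISA at 6 and 24 h.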

[6] = mRNA encapsulation efficiency of lipid nanoparticles; format: physicochemical; details: for Encapsulation efficiency (EE): LNP with cationic lipid CL-A
Method in brief: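 Encapsulation by RiboGreen assay run with and without 0.1% Triton-X 100. LNPs made by ethanolic lipid mixing with acidic aqueous mRNA, molar ratio 40:1.5:30:28.5 (cationic lipid:DMG-PEG2000:cholesterol:helper lipid), ultrafiltered/diafiltered, stored at −80° C. Size/PdI by dynamic light scattering after dilution in 10% trehalose to about 0.1 mg/ml mRNA.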

[7] = LNP with cationic lipid CL-A, hEPO mRNA, 40:30:28.5:1.5
[8] = CL-B LNP, serum 6 hours post injection
[9] = CL-A LNP, 0.1 μg EPO mRNA in 30 μL, serum 6 hours post injection

Row | SMILES | Normalized Mean EPO expression (hEPO [1]) | Normalized mean IV EPO expression using PC LNPs (hEPO [2]) | Normalized Mean IV EPO expression (hEPO [3]) | Polydispersity Index (PDI) ([4]; LNP with cationic lipid CL-A) | Size [4, 7] [nm] | PDI ([4]; LNP with cationic lipid CL-B) | Size ([4]; LNP with cationic lipid CL-B) [nm] | PDI ([4]; LNP with cationic lipid CL-C) | Size ([4]; LNP with cationic lipid CL-C) [nm] | 6-h EPO (hEPO [5]; [8]) [ng/mL] | 6-h EPO (hEPO [5]; CL-C LNP, (6-h)) [ng/mL] | Encapsulation efficiency (EE) [6] [%] | EE ([6]; LNP with cationic lipid CL-B) [%] | EE ([6]; LNP with cationic lipid CL-C) [%] | other results
1 | CCCCCCCCC(CCCCCCCC)C(=O)OCCCCCC(=O)OC[C@@H](COP(=O)(O)OCC[N+](C)(C)C)OC(=O)CCCCCOC(=O)C(CCCCCCCC)CCCCCCCC [Compound 54, (S)-2,3-Bis((6-((2-octyldecanoyl)oxy)hexanoyl)oxy)propyl (2-(trimethylammonio)ethyl) phosphate] | 0.5 | 0.97 |  |  |  |  |  |  |  |  |  |  |  |  | 
2 | CCCCCCCCC(CCCCCCCC)OC(=O)CCCCCCCC(=O)OC[C@@H](COP(=O)(O)OCC[N+](C)(C)C)OC(=O)CCCCCCC(=O)OC(CCCCCCCC)CCCCCCCC [Compound 50, (S)-2-((8-(Heptadecan-9-yloxy)-8-oxooctanoyl)oxy)-3-((9-(heptadecan-9-yloxy)-9-oxononanoyl)oxy)propyl (2-(trimethylammonio)ethyl) phosphate] | 1 | 1.6 |  |  |  |  |  |  |  |  |  |  |  |  | 
3 | CCCCCCCCC(CCCCCCCC)OC(=O)CCCCCCC(=O)OC[C@H](COP(=O)([O-])OCC[N+](C)(C)C)OC(=O)CCCCCCC(=O)OC(CCCCCCCC)CCCCCCCC [Compound 41, (R)-2,3-Bis((8-(heptadecan-9-yloxy)-8-oxooctanoyl)oxy)propyl (2-(trimethylammonio)ethyl) phosphate] | 1.3 |  | 1.7 |  |  |  |  |  |  |  |  |  |  |  | 
4 | CCCCCCCCCCCCCCCC(=O)OC[C@@H](COP(=O)(O)OCC[N+](C)(C)C)OC(=O)CCCCCCC(=O)OC(CCCCCCCC)CCCCCCCC [Compound 56, (S)-2-((8-(Heptadecan-9-yloxy)-8-oxooctanoyl)oxy)-3-(palmitoyloxy)propyl (2-(trimethylammonio)ethyl) phosphate] | 1 | 1.52 |  |  |  |  |  |  |  |  |  |  |  |  | 
5 | CCCCCCCCCCCCCCCC(=O)OC[C@H](COP(=O)(O)OCC[N+](C)(C)C)OC(=O)CCCCCCC(=O)OC(CCCCCCCC)CCCCCCCC [Compound 57, (R)-2-((8-(Heptadecan-9-yloxy)-8-oxooctanoyl)oxy)-3-(palmitoyloxy)propyl (2-(trimethylammonio)ethyl) phosphate] | 0.9 |  |  |  |  |  |  |  |  |  |  |  |  |  | 
6 | CCCCCCCCCC(CCCCCCCCC)C(=O)OCC(COP(=O)(O)OCCN(C)C)OC(=O)C(CCCCCCCCC)CCCCCCCCC (centres unmarked) [Compound 9, 3-(((2 (Dimethylamino)ethoxy)(hydroxy)phosphoryl)oxy)-propane-1,2-diyl bis(2-nonylundecanoate)] |  |  | 3.68 | 0.126 | 112 | 0.113 | 108.2 | 0.087 | 110.1 | 5.6 | 22.3 | 84 | 78 | 78 | 24-h EPO (hEPO [5]; CL-B LNP): 3.3 ng/mL; 6-h EPO (hEPO [5]; CL-C LNP): 12.2 ng/mL
7 | CCCCCCCCC(CCCCC)COC(=O)CCC(=O)OCC(COP(=O)(O)OCCN)OC(=O)CCC(=O)OCC(CCCCC)CCCCCCCC (centres unmarked) [Compound 5, O,O′-(3-(((2-Aminoethoxy)(hydroxy)phosphoryl)oxy)propane-1,2-diyl) bis(2-pentyldecyl) disuccinate] |  |  | 1.25 | 0.106 | 121 | 0.108 | 98.9 | 0.047 | 97.9 | 9.8 | 13.3 | 91 | 90 | 88 | 24-h EPO (hEPO [5]; CL-B LNP): 6.4 ng/mL; 6-h EPO (hEPO [5]; CL-C LNP): 10.1 ng/mL
8 | CCCCCCCCC(CCCCCCCC)OC(=O)CCCCCCC(=O)OC[C@H](COP(=O)(O)OCCN(C)C)OC(=O)CCCCCCC(=O)OC(CCCCCCCC)CCCCCCCC [Compound 14] |  |  | 0.95 | 0.068 | 148 | 0.067 | 137.0 | 0.141 | 101.4 | 35.4 | 34.6 | 96 | 92 | 91 | 6-h EPO (hEPO [5]; [9]): 0 ng/mL
9 | CCCCCCCCC(CCCCCCCC)OC(=O)CCCCCCC(=O)OCC(COP(=O)(O)OCC[N+](C)(C)C)OC(=O)CCCCCCC(=O)OC(CCCCCCCC)CCCCCCCC (centres unmarked) [Compound 24, 2-(((2,3-Bis((8-(heptadecan-9-yloxy)-8-oxooctanoyl)oxy)propoxy)(hydroxy)-phosphoryl)oxy)-N,N,N-trimethylethan-1-aminium] |  |  | 1.82 | 0.055 | 160 | 0.111 | 107.0 | 0.116 | 108.8 | 29.4 | 19.5 | 94 | 87 | 85 | 6-h EPO (hEPO [5]; [9]): 19.2 ng/mL
10 | CCCCCCCCC(CCCCCCCC)OC(=O)CCCCCCC(=O)OCC(COP(=O)(O)OCCN(C)C)OC(=O)CCCCCCC(=O)OC(CCCCCCCC)CCCCCCCC (centres unmarked) [Compound 12, O′^1,O^1-(3-(((2-(Dimethylamino)ethoxy)(hydroxy)phosphoryl)-oxy)propane-1,2-diyl) 8-di(heptadecan-9-yl) di(octanedioate)] |  |  | 2.23 | 0.050 | 160 | 0.132 | 109.6 | 0.072 | 110.1 | 39.6 | 38.4 | 93 | 93 | 90 | PDI ([4]; LNP with cationic lipid CL-D): 0.094; Size ([4]; LNP with cationic lipid CL-D): 113.4 nm; PDI ([4]; LNP with cationic lipid CL-E): 0.072; Size ([4]; LNP with cationic lipid CL-E): 112.6 nm; 6-h EPO (hEPO [5]; [9]): 28.9209 ng/mL; 24-h EPO (hEPO [5]; CL-A LNP): 19.526 ng/mL; 24-h EPO (hEPO [5]; CL-B LNP): 24 ng/mL; 6-h EPO (hEPO [5]; CL-C LNP): 26.2 ng/mL; EE ([6]; LNP with cationic lipid CL-D): 92%; EE ([6]; LNP with cationic lipid CL-E): 91%
11 | CCCCCCCCCCCCCCCCCC(=O)OC[C@H](COP(=O)([O-])OCC[N+](C)(C)C)OC(=O)CCCCCCCCCCCCCCCCC [DSPC, distearoylphosphatidylcholine, reference compound] |  | 0.89 |  |  |  |  |  |  |  |  |  |  |  |  | 
